EPA's ToxValDB 9.5 (doi:10.2903/j.efsa.2010.1897)
Converted amounts (≈) assume the structure as drawn. “And” between values parts separate entries of the source, which are not always exact repeats. Equal values may be shown once.

How the values were obtained:
Anas platyrhynchos = conditions: for LC50: short-term, feed
Apis mellifera = conditions: acute; duration: 48 hours; oral; unspecified; mortality
Colinus virginianus = conditions: for LC50: diet
Coturnix japonica = conditions: acute; oral; mortality
Cyprinodon variegatus = conditions: acute; duration: 96 hours; mortality
Daphnia magna = conditions: chronic/long-term; duration: 21 days
Folsomia candida = conditions: chronic/long-term; duration: 28 days; reproduction
Tagia sp. = conditions: acute; duration: 14 days; mortality
Typhlodromus pyri = assay: LR50; higher = less toxic; conditions: not reported; mortality

**Q.** What does the source list for `CC(C1CC1)C(O)(Cn1cncn1)c1ccc(Cl)cc1` (stereo not drawn) [Cyproconazole]?
**A.** LD50 (Anas platyrhynchos; acute, oral, unspecified, mortality): > 2000 mg/kg-day; NOEC (Anas platyrhynchos; reproductive): 1.4 mg/kg-day and 2.4 mg/kg-day; LC50 (Anas platyrhynchos; oral, mortality): 151 mg/kg-day; LD50 (Apis mellifera): > 100 µg/piece; LC50 (Colinus virginianus; acute, oral, mortality): 478 mg/kg-day and 585 mg/kg-day; LD50 (Colinus virginianus; acute, oral, mortality): 94 mg/kg-day and 183 mg/kg-day; NOEC (Colinus virginianus; reproduction developmental): 6.6 mg/kg-day; LD50 (Coturnix japonica): 130 mg/kg-day; LC50 (Cyprinodon variegatus): 21 µg/mL (≈ 72 µM); NOEC (Daphnia magna): 0.023 mg/L; NOEC (Folsomia candida): 55.8 mg/kg; LD50 (Mus musculus; acute, oral, mortality): 200 mg/kg-day; NOAEL (Mus musculus; chronic, duration: 18 months, body weight): 1.84 mg/kg-day; LC50 (Oncorhynchus mykiss; acute, duration: 96 hours, mortality): 19 µg/mL (≈ 65.1 µM); NOEC (Oncorhynchus mykiss; chronic/long-term, duration: 89 days, growth): 0.16 mg/L; NOAEL (Rattus norvegicus; chronic, duration: 2 years, M/F, body weight): 2.22 mg/kg-day; NOAEL (Rattus norvegicus; reproduction developmental, F, reproduction): 1.7 mg/kg-day; NOAEL (Rattus norvegicus; reproduction developmental, M, organ weight): 1.4 mg/kg-day; LC50 (Tagia sp.): > 335 mg/kg; LR50 (Typhlodromus pyri): 29.4 g/ha

**Q.** Which results are given for `NC(Cc1ncn[nH]1)C(=O)O` (stereo not drawn) [1,2,4-Triazole-3-alanine]?
**A.** LC50 (Anas platyrhynchos; oral, mortality): > 1340 mg/kg-day; LC50 (Colinus virginianus; acute, oral, mortality): > 1400 mg/kg-day; NOAEL (Rattus norvegicus; developmental, development): 100 mg/kg-day
